From ChEMBL document CHEMBL4007412, “Design, Synthesis, and Biological Evaluation of Mitochondria-Targeted Flavone-Naphthalimide-Polyamine Conjugates with Antimetastatic Activity” (J Med Chem, 2017)

How the values were obtained:
[1] = Cytotoxicity against human QSG7701 cells assessed as cell growth inhibition after 48 hrs by MTT assay; type: cell-based; settings: QSG7701, 48 h
HepG2 = experiment: Cytotoxicity against human HepG2 cells assessed as cell growth inhibition after 48 hrs by MTT assay; type: functional, cell-based; settings: HepG2, 48 h
SMMC-7721 = experiment: Cytotoxicity against human SMMC7721 cells assessed as cell growth inhibition after 48 hrs by MTT assay; type: functional, cell-based; settings: SMMC-7721, 48 h
H22 [2] = experiment: Antitumor activity against […] xenografted in Kunming mouse assessed as suppression of tumor weight at 5 mg/kg, iv dosed every day starting from day 8 after tumor cell inoculation; type: functional
H22 [3] = experiment: Antimetastatic activity against […] xenografted in pulmonary metastasis Kunming mouse model assessed as reduction in tumor metastatic nodules at 5 mg/kg, iv dosed every day starting from day 8 after tumor cell inoculation; type: functional; set-up: scale not given: the % may be the effect or the level left

SMILES	IC50 [1]	IC50 (HepG2)	IC50 (SMMC-7721)	Activity (H22 [2])	Activity (H22 [3])
CCCCNCCCCN1C(=O)c2cccc3c(-c4cc(=O)c5ccccc5o4)ccc(c23)C1=O	16.1 µM	10.1 µM	10.9 µM		
O=C1c2cccc3c(-c4cc(=O)c5ccccc5o4)ccc(c23)C(=O)N1CCCN1CCOCC1	47.7 µM	> 50 µM	31.6 µM		
NCCCNCCCNCCCN1C(=O)c2cccc3c(-c4cc(=O)c5ccccc5o4)ccc(c23)C1=O	17.4 µM	14.7 µM	11.3 µM		
O=C1c2cccc3c(-c4cc(=O)c5ccccc5o4)ccc(c23)C(=O)N1CCCCN1CCNCC1	16.9 µM	15.5 µM	16.6 µM		
O=C1c2cccc3c(-c4cc(=O)c5ccccc5o4)ccc(c23)C(=O)N1CCCN1CCNCC1	34.7 µM	> 50 µM	43.5 µM		
CCCCN(CCCC)CCCN1C(=O)c2cccc3c(-c4cc(=O)c5ccccc5o4)ccc(c23)C1=O	> 50 µM	18.9 µM	16.5 µM		
CN(C)CCN1C(=O)c2cccc3cc(N)cc(c23)C1=O [AMONAFIDE]	7.84 µM	10.1 µM	9.95 µM	48.1%	41.4%
NCCCCNCCCN1C(=O)c2cccc3c(-c4cc(=O)c5ccccc5o4)ccc(c23)C1=O	41.8 µM	9.84 µM	11.1 µM		
